# Laboratory results taken from patent US10758534B2 (Vertex Pharmaceuticals Incorporated, priority 2014, dated 2020).
# Target: T1, F508del (Homo sapiens, UniProt P13569, DEL508-508)
# T1 construct: expressed in transfected cells
# Assay: Protocol 1: membrane potential optical assay (FLIPR III, voltage sensing dye), identification of potentiator compounds
# Type: cell-based
# Conditions: Table 3, compounds of Table 1
# How it was run: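 Gating potentiation is read as a membrane-potential fluorescence change (FLIPR III, voltage-sensing dye) after one forskolin addition under a Cl− gradient, with gluconate replacing chloride, pH 7.4. Cells are F508del-expressing NIH3T3 mouse fibroblasts held 24 h at 27 °C and exposed to compound before dye loading.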
# T1 sequence (P13569 with tags, fused parts or gaps DEL508-508): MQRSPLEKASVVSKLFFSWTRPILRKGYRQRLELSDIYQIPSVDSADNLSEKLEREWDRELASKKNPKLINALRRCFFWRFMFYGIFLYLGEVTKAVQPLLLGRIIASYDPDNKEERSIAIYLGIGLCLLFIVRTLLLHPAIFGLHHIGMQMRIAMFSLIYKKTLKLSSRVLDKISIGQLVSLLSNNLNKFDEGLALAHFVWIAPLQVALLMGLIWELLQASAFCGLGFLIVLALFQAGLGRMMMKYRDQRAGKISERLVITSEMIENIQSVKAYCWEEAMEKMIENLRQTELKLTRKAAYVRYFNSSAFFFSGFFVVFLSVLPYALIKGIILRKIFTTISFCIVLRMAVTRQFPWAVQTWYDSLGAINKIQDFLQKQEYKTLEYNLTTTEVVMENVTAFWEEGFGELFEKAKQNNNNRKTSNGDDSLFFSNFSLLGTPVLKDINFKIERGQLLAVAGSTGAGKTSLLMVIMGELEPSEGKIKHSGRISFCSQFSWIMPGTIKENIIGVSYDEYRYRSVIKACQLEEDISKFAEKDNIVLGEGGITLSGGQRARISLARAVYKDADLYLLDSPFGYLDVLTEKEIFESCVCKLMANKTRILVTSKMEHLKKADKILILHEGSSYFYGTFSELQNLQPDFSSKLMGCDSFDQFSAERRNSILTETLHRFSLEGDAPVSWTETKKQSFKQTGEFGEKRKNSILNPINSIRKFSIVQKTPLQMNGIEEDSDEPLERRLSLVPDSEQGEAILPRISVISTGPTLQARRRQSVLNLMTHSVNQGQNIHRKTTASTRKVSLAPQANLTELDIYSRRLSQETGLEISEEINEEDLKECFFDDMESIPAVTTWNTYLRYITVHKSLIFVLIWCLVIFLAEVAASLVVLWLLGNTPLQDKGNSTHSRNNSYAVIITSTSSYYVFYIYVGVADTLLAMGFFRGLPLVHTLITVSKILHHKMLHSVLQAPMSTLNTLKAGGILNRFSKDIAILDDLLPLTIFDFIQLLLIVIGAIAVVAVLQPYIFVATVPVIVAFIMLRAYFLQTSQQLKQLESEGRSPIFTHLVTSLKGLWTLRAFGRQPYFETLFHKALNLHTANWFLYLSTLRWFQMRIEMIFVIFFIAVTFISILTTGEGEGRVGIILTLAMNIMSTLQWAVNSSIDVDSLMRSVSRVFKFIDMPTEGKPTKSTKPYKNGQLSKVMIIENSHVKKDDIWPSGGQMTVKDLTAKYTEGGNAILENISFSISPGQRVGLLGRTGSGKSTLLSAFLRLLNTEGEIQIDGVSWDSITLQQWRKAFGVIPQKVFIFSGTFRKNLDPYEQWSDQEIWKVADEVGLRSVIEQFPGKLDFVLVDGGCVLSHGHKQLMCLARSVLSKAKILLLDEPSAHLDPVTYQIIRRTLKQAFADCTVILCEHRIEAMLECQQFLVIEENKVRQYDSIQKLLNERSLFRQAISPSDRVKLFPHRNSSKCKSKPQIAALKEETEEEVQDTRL
row,Compound,EC30
1,"CCOc1cccc2c1CN(Cc1c(C)cc(C)cc1C)C2(C)C(=O)NS(=O)(=O)c1cscn1 (stereo not drawn) [Compound 1542, 4-ethoxy-1-methyl-N-thiazol-4-ylsulfonyl-2-[(2,4,6-trimethylphenyl)methyl]isoindoline-1-carboxamide]",+++ (“+++” means <3 uM)
2,"CC1CN(c2ncc(C3=CC4CCC3(C)C4(C)C)cc2C(=O)NS(=O)(=O)c2cccc(N)n2)C(C)(C)C1 (stereo not drawn) [Compound 1544, N-[(6-amino-2-pyridyl)sulfonyl]-5-(4,7,7-trimethyl-3-bicyclo[2.2.1]hept-2-enyl)-2-(2,2,4-trimethylpyrrolidin-1-yl)pyridine-3-carboxamide]",+++ (“+++” means <3 uM)
3,"COC1CCCN(S(=O)(=O)NC(=O)c2ccc(-c3cc(F)cc(OCC(C)C)c3)nc2N2C[C@@H](C)CC2(C)C)C1 (stereo partly drawn) [Compound 1545, 6-(3-fluoro-5-isobutoxy-phenyl)-N-[(3-methoxy-1-piperidyl)sulfonyl]-2-[(4S)-2,2,4-trimethylpyrrolidin-1-yl]pyridine-3-carboxamide]",+++ (“+++” means <3 uM)
4,"CCOc1cccc2c1CN(Cc1c(C)cc(C)cc1C)C2(C)C(=O)NS(=O)(=O)c1nccs1 (stereo not drawn) [Compound 1546, 4-ethoxy-1-methyl-N-thiazol-2-ylsulfonyl-2-[(2,4,6-trimethylphenyl)methyl]isoindoline-1-carboxamide]",+++ (“+++” means <3 uM)
5,"C[C@@H]1CN(c2nc(C(C)(C)C)c(/C=C/C(=O)O)cc2C(=O)NS(=O)(=O)c2cccc(N)n2)C(C)(C)C1 [Compound 1547, (E)-3-[5-[(6-amino-2-pyridyl)sulfonylcarbamoyl]-2-tert-butyl-6-[(4S)-2,2,4-trimethylpyrrolidin-1-yl]-3-pyridyl]prop-2-enoic acid]",++ (“++” means between 3 uM and 10 uM)
6,"CC(C)COc1cc(F)cc(-c2ccc(C(=O)NS(=O)(=O)c3cccc(N)n3)c(N3CC(C)OCC3(C)C)n2)c1 (stereo not drawn) [Compound 1548, N-[(6-amino-2-pyridyl)sulfonyl]-6-(3-fluoro-5-isobutoxy-phenyl)-2-(2,5,5-trimethylmorpholin-4-yl)pyridine-3-carboxamide]",+++ (“+++” means <3 uM)
7,"Cc1cc(C)c(Oc2cc(-c3cc(F)cc(OCC(C)C)c3)ccc2C(=O)NS(=O)(=O)c2cccc(N)n2)c(C)c1 [Compound 1549, N-[(6-amino-2-pyridyl)sulfonyl]-4-(3-fluoro-5-isobutoxy-phenyl)-2-(2,4,6-trimethylphenoxy)benzamide]",+++ (“+++” means <3 uM)
8,"C[C@@H]1CN(c2ncc(C(F)(F)F)cc2C(=O)NS(=O)(=O)c2cccc(N)n2)C(C)(C)C1 [Compound 1550, N-[(6-amino-2-pyridyl)sulfonyl]-5-(trifluoromethyl)-2-[(4S)-2,2,4-trimethylpyrrolidin-1-yl]pyridine-3-carboxamide]",++ (“++” means between 3 uM and 10 uM)
9,"COc1ccccc1S(=O)(=O)NC(=O)c1cc(C(C)(C)C)nn1Cc1c(C)cccc1C [Compound 1551, 5-tert-butyl-2-[(2,6-dimethylphenyl)methyl]-N-(2-methoxyphenyl)sulfonyl-pyrazole-3-carboxamide]",+++ (“+++” means <3 uM)
10,CC(C)COc1cc(F)cc(-c2ccc(C(=O)NS(=O)(=O)c3cccc(N)n3)c(C3CC(C)(C)CC3(C)C)n2)c1 (stereo not drawn) [Compound 1552],+++ (“+++” means <3 uM)
11,"Cc1cc(C)c(Oc2nc(N3CCCC3C)ccc2C(=O)NS(=O)(=O)c2cccc(N)n2)c(C)c1 (stereo not drawn) [Compound 1553, N-[(6-amino-2-pyridyl)sulfonyl]-6-(2-methylpyrrolidin-1-yl)-2-(2,4,6-trimethylphenoxy)pyridine-3-carboxamide]",+++ (“+++” means <3 uM)
12,"CNC1CCN(S(=O)(=O)NC(=O)c2ccc(-c3cc(F)cc(OCC(C)C)c3)nc2N2CC(C)CC2(C)C)C1 (stereo not drawn) [Compound 1554, 6-(3-fluoro-5-isobutoxy-phenyl)-N—[3-(methylamino)pyrrolidin-1-yl]sulfonyl-2-(2,2,4-trimethylpyrrolidin-1-yl)pyridine-3-carboxamide]",+++ (“+++” means <3 uM)
13,"CCOc1cccc2c1CN(Cc1c(C)cc(C)cc1C)C2(C)C(=O)NS(=O)(=O)c1cnc(NC(C)=O)s1 (stereo not drawn) [Compound 1555, N-(2-acetamidothiazol-5-yl)sulfonyl-4-ethoxy-1-methyl-2-[(2,4,6-trimethylphenyl)methyl]isoindoline-1-carboxamide]",+++ (“+++” means <3 uM)
14,"C[C@@H]1CN(c2nc(C(F)(F)F)ccc2C(=O)NS(=O)(=O)c2cccc(N)n2)C(C)(C)C1 [Compound 1556, N-[(6-amino-2-pyridyl)sulfonyl]-6-(trifluoromethyl)-2-[(4S)-2,2,4-trimethylpyrrolidin-1-yl]pyridine-3-carboxamide]",+++ (“+++” means <3 uM)
15,"CC(C)COc1cc(F)cc(-c2ccc(C(=O)NS(=O)(=O)N3CC[C@H](N)C3)c(N3C[C@@H](C)CC3(C)C)n2)c1 [Compound 1557, N-[(3S)-3-aminopyrrolidin-1-yl]sulfonyl-6-(3-fluoro-5-isobutoxy-phenyl)-2-[(4S)-2,2,4-trimethylpyrrolidin-1-yl]pyridine-3-carboxamide]",+++ (“+++” means <3 uM)
16,"Cc1cc(C)c(Oc2nc(C3=CCC4(CC3)OCCO4)ccc2C(=O)NS(=O)(=O)c2cccc(N)n2)c(C)c1 [Compound 1558, N-[(6-amino-2-pyridyl)sulfonyl]-6-(1,4-dioxaspiro[4.5]dec-8-en-8-yl)-2-(2,4,6-trimethylphenoxy)pyridine-3-carboxamide]",++ (“++” means between 3 uM and 10 uM)
17,"CC(C)COc1cc(F)cc(-c2ccc(C(=O)NS(=O)(=O)c3cccc(N)n3)c(OC3CC(OCc4ccccc4)C3)n2)c1 (stereo not drawn) [Compound 1559, N-[(6-amino-2-pyridyl)sulfonyl]-2-(3-benzyloxycyclobutoxy)-6-(3-fluoro-5-isobutoxy-phenyl)pyridine-3-carboxamide]",+++ (“+++” means <3 uM)
18,"CC(C)COc1cc(F)cc(-c2ccc(C(=O)NS(=O)(=O)N3CCC(S(C)(=O)=O)C3)c(N3C[C@@H](C)CC3(C)C)n2)c1 (stereo partly drawn) [Compound 1560, 6-(3-fluoro-5-isobutoxy-phenyl)-N-(3-methylsulfonylpyrrolidin-1-yl)sulfonyl-2-[(4S)-2,2,4-trimethylpyrrolidin-1-yl]pyridine-3-carboxamide]",+++ (“+++” means <3 uM)
19,"CC(C)=Cc1cc(C(=O)NS(=O)(=O)c2cccc(N)n2)c(N2CC(C)CC2(C)C)nc1C(C)(C)C (stereo not drawn) [Compound 1561, N-[(6-amino-2-pyridyl)sulfonyl]-6-tert-butyl-5-(2-methylprop-1-enyl)-2-(2,2,4-trimethylpyrrolidin-1-yl)pyridine-3-carboxamide]",+++ (“+++” means <3 uM)
20,"CCOc1cccc2c1CN(Cc1c(C)cc(C)cc1C)C2(C)C(=O)NS(=O)(=O)c1ccc(C(C)C)c(N)c1 (stereo not drawn) [Compound 1562, N-(3-amino-4-isopropyl-phenyl)sulfonyl-4-ethoxy-1-methyl-2-[(2,4,6-trimethylphenyl)methyl]isoindoline-1-carboxamide]",+++ (“+++” means <3 uM)
21,"CC(C)COc1cc(F)cc(-c2ccc(C(=O)NS(=O)(=O)c3ccc(O)c(N)n3)c(N3C[C@@H](C)CC3(C)C)n2)c1 [Compound 1563, N-[(6-amino-5-hydroxy-2-pyridyl)sulfonyl]-6-(3-fluoro-5-isobutoxy-phenyl)-2-[(4S)-2,2,4-trimethylpyrrolidin-1-yl]pyridine-3-carboxamide]",+++ (“+++” means <3 uM)
